# Structures can show the parent of a compound that is named as a salt.
# Experiments:
# [1] = system: S. pneumoniae PRC9 (penicillin-hyper resistant strain, PRSP); assay: Anti-microbial activities (MIC); type: cell-based; conditions: Streptococcus pneumoniae, Sensitivity Disk agar-N+5% Horse blood, 10^6 CFU/ml, read-out: minimum inhibiting concentration (MIC)
# Procedure: (§1) The minimum inhibiting concentrations (MIC, […]) of the compounds according to the present invention to various pathogenic bacteria was measured in accordance with the method described in CHEMOTHERAPY, vol. 16, No. 1, 99, 1968. The culture medium for measurement was Sensitivity Disk agar-N+5% Horse blood, and the amount of inoculants was 10^6 CFU/ml.
# **: penicillin-hyper resistant strain (PRSP);
# E. faecalis W-73 = assay: Anti-microbial activities (MIC); type: cell-based; conditions: Enterococcus faecalis, W73, Sensitivity Disk agar-N+5% Horse blood, 10^6 CFU/ml, read-out: minimum inhibiting concentration (MIC)
# Procedure: as §1
# S. epidermidis ATCC14990 = assay: Anti-microbial activities (MIC); type: cell-based; conditions: Staphylococcus epidermidis, Sensitivity Disk agar-N+5% Horse blood, 10^6 CFU/ml, read-out: minimum inhibiting concentration (MIC)
# Procedure: as §1
# K. pneumoniae PCI602 = assay: Anti-microbial activities (MIC); type: cell-based; conditions: Klebsiella pneumoniae, Sensitivity Disk agar-N+5% Horse blood, 10^6 CFU/ml, read-out: minimum inhibiting concentration (MIC)
# Procedure: as §1
# B. catarrhalis W-0506 = assay: Anti-microbial activities (MIC); type: cell-based; conditions: Moraxella catarrhalis, W0506, Sensitivity Disk agar-N+5% Horse blood, 10^6 CFU/ml, read-out: minimum inhibiting concentration (MIC)
# Procedure: as §1
# H. influenzae PRC44 = assay: Anti-microbial activities (MIC); type: cell-based; conditions: Haemophilus influenzae, Sensitivity Disk agar-N+5% Horse blood, 10^6 CFU/ml, read-out: minimum inhibiting concentration (MIC)
# Procedure: as §1
# S. aureus 209P JC-1 = assay: Anti-microbial activities (MIC); type: cell-based; conditions: Staphylococcus aureus, Sensitivity Disk agar-N+5% Horse blood, 10^6 CFU/ml, read-out: minimum inhibiting concentration (MIC)
# Procedure: as §1
# H. influenzae PRC2 = assay: Anti-microbial activities (MIC); type: cell-based; conditions: Haemophilus influenzae, Sensitivity Disk agar-N+5% Horse blood, 10^6 CFU/ml, read-out: minimum inhibiting concentration (MIC)
# Procedure: as §1
# E. hirae ATCC8043 = assay: Anti-microbial activities (MIC); type: cell-based; conditions: Enterococcus hirae, Sensitivity Disk agar-N+5% Horse blood, 10^6 CFU/ml, read-out: minimum inhibiting concentration (MIC)
# Procedure: as §1
# C. freundii GN346 = assay: Anti-microbial activities (MIC); type: cell-based; conditions: Citrobacter freundii, Sensitivity Disk agar-N+5% Horse blood, 10^6 CFU/ml, read-out: minimum inhibiting concentration (MIC)
# Procedure: as §1
# E. coli NIHJ JC-2 = assay: Anti-microbial activities (MIC); type: cell-based; conditions: Escherichia coli, NIHJJC2, Sensitivity Disk agar-N+5% Horse blood, 10^6 CFU/ml, read-out: minimum inhibiting concentration (MIC)
# Procedure: as §1
# P. vulgaris GN7919 = assay: Anti-microbial activities (MIC); type: cell-based; conditions: Proteus vulgaris, Sensitivity Disk agar-N+5% Horse blood, 10^6 CFU/ml, read-out: minimum inhibiting concentration (MIC)
# Procedure: as §1
# [2] = Stability against DHP-I, porcine; type: in vitro ADME; conditions: pig, renal dehydropeptidase i, pH 7, 100 μg (titer)/ml, 37° C., HPLC, read-out: residual amount after 3 hours
# Procedure: (§2) The stabilities of the compounds according to the present invention against porcine and mouse renal dehydropeptidases were measured by the following method.
# (§3) Kidney acetone powder, Porcine Type II(Sigma; Lot. 33H7225; 1.5 g) was suspended in a 50 mM Tris.HCl buffer (pH 7.0) containing 20% butanol, and the mixture was stirred at 5° C. for 48 hours. Dialysis (Cellulose tube 30/32; Viskase Sales Corp) was conducted with a 50 mM Tris.HCl buffer (pH 7.0) in order to remove butanol to a level of no smell of butanol. The dialysate was centrifuged at 10000×g (KUBOTA 6800) for 20 minutes to give a supernatant as a partly purified DHP-I, which was divided into portions and stored at -80° C. Also, a partly purified DHP-I was prepared from 1.5 g of Mouse (Lot. 23F8105), and stored in the same manner as above.
# (§4) The compounds according to the present invention as a basic pharmaceutical was diluted with sterile purified water to prepare a solution having a titer of 2000 μg/ml. The solution of the compound according to the present invention having a titer of 2000 μg/ml was added to the partly purified DHP-I's of the above described animals so as to have a final concentration of 100 μg (titer)/ml. As a blank, 50 mM Tris.HCl buffer (pH 7.0) was used in place of the partly purified DHP-I's of the animals. After reaction at 37° C. for 3 hours, a portion of the reaction mixture was taken out, diluted with the same amount of methanol to stop the reaction by cooling in ice. The reaction mixture was filtered through SUNPLEP LCR13-LH, MILLIPORE), and subjected to HPLC (column: CAPCELL PACK C18 SG120, SHISEIDO; UV detector; mobile phase: acetonitrile--10 mM aqueous acetic acid solution) to measure the residual amount (%) of […] according to the following equation. [formula]
# [3] = system: S. aureus M126 (methicillin-hyper resistant strain, MRSA); assay: Anti-microbial activities (MIC); type: cell-based; conditions: Staphylococcus aureus, Sensitivity Disk agar-N+5% Horse blood, 10^6 CFU/ml, read-out: minimum inhibiting concentration (MIC)
# Procedure: as §1
# *: methicillin-hyper resistant strain (MRSA);
# [4] = Stability against DHP-I, mouse; type: in vitro ADME; conditions: renal dehydropeptidase i, pH 7, 100 μg (titer)/ml, 37° C., HPLC, read-out: residual amount after 3 hours
# Procedure: as §2, §3, §4
# Acute toxicity test = type: in vivo, mice (ICR, male); conditions: intravenous, 2000 mg/kg, mice, n=3
# Procedure: The compound of Example 1 was administered intravenously to mice (ICR, male, n =3) in an amount of 2000 mg/kg.
Compound,MIC [1] [µg/mL],MIC (E. faecalis W-73) [µg/mL],MIC (S. epidermidis ATCC14990) [µg/mL],MIC (K. pneumoniae PCI602) [µg/mL],MIC (B. catarrhalis W-0506) [µg/mL],MIC (H. influenzae PRC44) [µg/mL],MIC (S. aureus 209P JC-1) [µg/mL],MIC (H. influenzae PRC2) [µg/mL],MIC (E. hirae ATCC8043) [µg/mL],MIC (C. freundii GN346) [µg/mL],MIC (E. coli NIHJ JC-2) [µg/mL],MIC (P. vulgaris GN7919) [µg/mL],remaining at 3 h [2] [%],MIC [3] [µg/mL],remaining at 3 h [4] [%],survival (acute toxicity) (Acute toxicity test)
"C[C@@H](O)[C@H]1C(=O)N2C(C(=O)O)=C(SCCN=CN)C[C@H]12 [Compound A, imipenem, reference compound]",0.2,0.78,< 0.025,0.2,< 0.025,12.5,< 0.025,0.78,0.78,0.2,0.1,0.1,0.6,25,24,
"C[C@@H](O)[C@H]1C(=O)N2C(C(=O)O)=C(S[C@@H]3CN[C@H](C(=O)N(C)C)C3)[C@H](C)[C@H]12 [C, meropenem, reference compound]",,,,,,,,,,,,,72,,18,
"C[C@@H](O)[C@H]1C(=O)N2C(C(=O)O)=C(c3cn4cncc4s3)[C@H](C)[C@H]12 [Example 1, (1S,5R,6S)-6-((1R)-1-hydroxyethyl)-2-(imidazo[5,1-b]thiazol-2-yl)-1-methyl-1-carbapen-2-em-3-carboxylic Acid]",0.1,0.2,< 0.025,0.1,< 0.025,0.39,< 0.025,< 0.025,0.39,1.56,0.1,0.05,87,3.13,< 2.9,all of the animals were survived

# Second part, led by results:
MIC [1] [µg/mL],MIC (E. faecalis W-73) [µg/mL],MIC (S. epidermidis ATCC14990) [µg/mL],MIC (K. pneumoniae PCI602) [µg/mL],MIC (B. catarrhalis W-0506) [µg/mL],MIC (H. influenzae PRC44) [µg/mL],MIC (S. aureus 209P JC-1) [µg/mL],MIC (H. influenzae PRC2) [µg/mL],MIC (E. hirae ATCC8043) [µg/mL],MIC (C. freundii GN346) [µg/mL],MIC (E. coli NIHJ JC-2) [µg/mL],MIC (P. vulgaris GN7919) [µg/mL],remaining at 3 h [2] [%],MIC [3] [µg/mL],remaining at 3 h [4] [%],Compound,survival (acute toxicity) (Acute toxicity test)
0.2,0.39,0.05,0.05,< 0.025,0.78,< 0.025,0.05,0.78,0.2,0.1,0.1,60,6.25,< 0.2,"C[C@@H](O)[C@H]1C(=O)N2C(C(=O)O)=C(c3cn4cncc4s3)C[C@H]12 [Example 8, (5R,6S)-6-((1R)-1-hydroxyethyl)-2-(imidazo[5,1-b]thiazol-2-yl)-1-carbapen-2-em-3-carboxylic Acid]",
0.39,3.13,0.05,0.1,< 0.025,0.78,< 0.025,0.1,1.56,0.1,0.05,0.1,,6.25,,"C[C@@H](O)[C@H]1C(=O)N2C(C(=O)O)=C(S[C@@H]3CN[C@H](Cc4cn5c[n+](C)cc5s4)C3)[C@H](C)[C@H]12 [Compound B, (1R,5S,6S)-6-((1R)-1-hydroxyethyl)-1-methyl-2-[(3S,5S)-5-(6-methylimidazo[5,1-b]thiazolium-2-yl)methylpyrrolidin-3-yl]thiocarbapen-2-em-3-carboxylic acid iodide, reference compound]",
0.05,0.1,< 0.025,0.05,< 0.025,0.39,< 0.025,0.05,0.78,0.1,< 0.025,0.1,100,3.13,94,"C[C@@H](O)[C@H]1C(=O)N2C(C(=O)[O-])=C(c3cn4c[n+](C)cc4s3)[C@H](C)[C@H]12 [Example 4, (1S,5R,6S)-6-((1R)-1-hydroxyethyl)-1-methyl-2-(6-methylimidazo[5,1-b]thiazolium-2-yl)-1-carbapen-2-em-3-carboxylate (inner salt)]",

# — patent publication US6310056A, “Carbapenem derivatives” (Meiji Seika Kaisha, Ltd., priority 1997, dated 2001)
